Test results reported in US20120172450A1, “USE OF JASMONATE FOR IMPROVING SKELETAL MUSCLE FUNCTION” (BROADY HEALTH SCIENCES, LLC, priority 2010, published 2012).

Test system: skeletal muscle fatigue and performance
Experiment: Effect of Jasmone on Muscle Fatigue and Performance in exercising subjects
Format: in vivo, human
Description: Subjects ranged from 43 to 72 years old. Subjects took 50-100 micrograms of jasmone once a day. All subjects were currently performing various exercise programs. Individual data was collected as to the changes that were noted upon jasmone supplementation.
Subject one, was a person who ran and trained with weights on a regular basis. They took a simplified stress test measuring time to maximum heart rate on treadmill exertion. Pre-Jasmone time on treadmill to target heart rate was 9 minutes. Two weeks after taking Jasmone, stress test results improved to 11 minutes. After 4 weeks of jasmone protocol stress test time increased to 15 min. In addition, after 3 weeks they reported increased weight repetitions by 15 percent and within four weeks increased push ups by 20 percent with same level of exertion as before.
Subject two, was a person who ran on a regular basis. Prior to Jasmone, full exertion exercise routine consisted of approximately 2 miles at 4.5 miles per hour. After two weeks of Jasmone was able to increase routine to running time to 2.5 miles without difficulty.
Subject three (person one), was a person who biked on a regular basis. After 4 weeks of taking Jasmone they increased cycling distance by 50 percent and speed by 10 percent.
Subject four, a person reported who trained with weights on a regular basis, increased weight repetitions of 25% after 4 weeks of taking Jasmone. Subject four, a person regularly performed an exercise routine including weight machines. Prior to taking Jasmone, on a particular machine, they were able to perform 12 repetitions at 60 pds of weight. Two weeks after taking Jasmone was able to increase weight to 80 and repetitions increased to 14.
Subject five, was a person, who regularly exercised but due to travel was unable to maintain normal exercise routine during trial. […] Two examples of this include running through an airport carrying luggage and another running in extreme heat.

CC/C=C\CC1=C(C)CCC1=O [Jasmone, jasmone]
self-reported running ability (Subject five, normal exercise routine not maintained during trial): increased ability to run far and fast without getting winded
increase in weight repetitions (Subject four, after 4 weeks of taking Jasmone): 25%
self-reported strength and endurance (Subject four, after four weeks of Jasmone): felt increased strength and endurance
repetitions on weight machine (Subject four, two weeks after taking Jasmone, prior 12 repetitions): 14
weight on weight machine (Subject four, two weeks after taking Jasmone, prior 60 pds): 80 pds
increase in weight repetitions (Subject one, after 3 weeks, same level of exertion as before): 15%
stress test time (time on treadmill to target heart rate) (Subject one, after 4 weeks of jasmone, pre-Jasmone 9 minutes): 15 min
time on treadmill to target heart rate (simplified stress test) (Subject one, two weeks after taking Jasmone, 50-100 micrograms once a day, pre-Jasmone 9 minutes): 11 min
increase in push ups (Subject one, within four weeks, same level of exertion as before): 20%
increase in cycling distance (Subject three (person one), after 4 weeks of taking Jasmone): 50%
increase in cycling speed (Subject three, after 4 weeks of taking Jasmone): 10%
workout fatigue (Subject two, after additional two weeks): workout fatigue continued to improve
running routine distance (Subject two, after two weeks of Jasmone, prior approximately 2 miles at 4.5 miles per hour): 2.5 miles
